Assay results as given in PubChem BioAssay (NCI).
Several values for one entry are separate records, joined by “and”; a condition that tells them apart may be missing. Equal entries are not always repeated.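 Five compound concentrations were applied to cells in 96-well plates for 48 hours; endpoints were derived by simple linear interpolation of the resulting dose-response curve. GI50: concentration for 50% inhibition of growth. The concentration for full growth arrest is given as TGI.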

system: K-562 leukemia; test: NCI anticancer screen, dose series, 48 h

In the case of `COc1ccc([N+]2=NC(c3ccc([N+](=O)[O-])cc3)=NN(c3ccccc3)C2)cc1`, the TGI is reported as 97.3 µM and > 100 µM.
`CC(=O)N[C@H]1C=C[C@@H]2/C=C(C)/C=C/[C@@H](C)[C@H]([C@H](C)[C@H](O)[C@@H](C)NC(C)=O)OC(=O)/C=C/C=C(C)\C=C\[C@]2(C)C1` was tested, and the TGI was 4.65 µM and > 45 µM.

`C=CC1(C(=O)O)CCC(C(C)(C)C)CC1` (stereo not given) and `CC1C[C@@]2(c3ccccc3)C(=O)CCC[C@H]2N1` (stereo not given in full) cannot be ordered by TGI: greater than 100 µM for the first, greater than 100 µM for the second.

`NC(=O)C(=Cc1ccc(C(O)P(=O)(O)O)cc1)C(N)=O` (stereo not given) and `CCNC(=O)CCN(C(=O)O)S(=O)(=O)c1ccc(NC(=O)c2ccccc2)cc1` cannot be ordered by TGI: greater than 100 µM for the first, greater than 100 µM for the second.

First: O=C(Nc1cc(Cl)c(Cl)cc1Cl)C(=O)C1C=CCS1(=O)=O (stereo not given)
Second: CC1=C(C(=O)Nc2ccccc2C)C(c2ccc(Cl)c(Cl)c2)C(C(=O)Nc2ccccc2C)=C(C)N1
The TGI of the first is higher: greater than 100 µM for the first, 79.8 µM for the second.

Going from `O=C(/C=C/c1ccc([N+](=O)[O-])o1)N1CCN(Cc2ccccc2)CC1` to `Cc1[nH]c2ccccc2c1C1Cc2ccccc2N1C(=O)/C=C\C(=O)O` (stereo not given), the TGI rises from 26.2 µM to greater than 100 µM.

`O=[N+]([O-])c1cccc(/C=N\NS(=O)(=O)c2ccc(Cl)cc2)c1O` and `Nc1c(C(=O)c2ccc(Cl)cc2)sc(Nc2ccccc2)c1-c1nc2ccccc2s1` cannot be ordered by TGI: greater than 100 µM for the first, greater than 100 µM for the second.

`Cc1cc(I)cc(CN(C)CCCN2CCSCC2)c1O` and `CCN(CC)CCC(=O)NC1c2ccc(Cl)cc2Oc2c(C)cccc21` (stereo not given) are within 1.5-fold of each other in TGI: 32.6 µM for the first, 40.7 µM for the second.

`CCCCOC(=O)NC(=O)c1cn(CCCOC(=O)CCCCCCCCC(=O)OCCCn2cc(C(=O)NC(=O)OCCCC)c(=O)[nH]c2=O)c(=O)[nH]c1=O` and `CCOC(=O)c1cc(C#N)c(=O)n(/N=C(\C)c2ccncc2)c1O` cannot be ordered by TGI: greater than 100 µM for the first, greater than 100 µM for the second.

In the case of `CC(=O)N[C@H]1C=C[C@@H]2/C=C(C)/C=C/[C@@H](C)[C@H]([C@H](C)[C@H](O)[C@@H](C)NC(C)=O)OC(=O)/C=C/C=C(C)\C=C\[C@]2(C)C1`, the GI50 is reported as 0.0307 µM and 0.00538 µM.

First: Cc1cc(I)cc(CN(C)CCCN2CCSCC2)c1O
Second: CCOC(=O)c1cc(C#N)c(=O)n(/N=C(\C)c2ccncc2)c1O
The GI50 of the first is lower: 14.2 µM for the first, greater than 100 µM for the second.

`Nc1c(C(=O)c2ccc(Cl)cc2)sc(Nc2ccccc2)c1-c1nc2ccccc2s1` gave a GI50 of 3.1 µM.

system: OVCAR-4 ovarian; test: NCI anticancer screen, dose series, 48 h

First: COc1cc2c(cc1OCCCOc1cc3c(cc1OC)C(=O)N1C[C@H](F)C[C@H]1C=N3)N=C[C@@H]1C[C@@H](F)CN1C2=O
Second: COc1cc(OC)c(/C=C/S(=O)(=O)Cc2cnc(OC)c(N)c2)c(OC)c1
The GI50 of the first is higher: 16.2 µM for the first, less than 0.0456 µM for the second.

`CCOC(=O)C(N)C[S][Sn]([CH3])([CH3])[Cl]` (stereo not given) and `CCOC(=O)C(Cc1c[nH]c2ccc(N)cc12)(NC(C)=O)C(=O)OCC` cannot be ordered by GI50: greater than 100 µM for the first, greater than 1000 µM for the second.

In the case of `Cc1cc(C)c([O-])c(CN(C)CCN(C)Cc2cc(C)cc(C)c2[O-])c1.O=C([O-])c1cccc(C(=O)[O-])n1.[Ti+4]`, the GI50 is reported as 2.87 µM.

Going from `COc1cc2c(cc1OCCCOc1cc3c(cc1OC)C(=O)N1C[C@H](F)C[C@H]1C=N3)N=C[C@@H]1C[C@@H](F)CN1C2=O` to `COc1cc(OC)c(/C=C/S(=O)(=O)Cc2cnc(OC)c(N)c2)c(OC)c1`, the TGI rises from 31.7 µM to greater than 100 µM.

Going from `c1ccc2c(c1)CCC/C2=N\OCC1CO1` (stereo not given) to `CCCCc1c2c(nc3c1CCC/C3=C\c1ccccc1)C(=O)CCC2`, the TGI falls from greater than 100 µM to 67.9 µM.

First: CC/C(C)=C1\CCC(CN2CCOCC2)C1=O (stereo not given)
Second: CN1CCN(CCCN)CC1
The TGI of the first is lower: 31.7 µM for the first, greater than 100 µM for the second.

`COC(=O)C1C(C(=O)OC)C2(OC)c3ccccc3-c3ccccc3C12` (stereo not given) and `NNC(=O)/C(=C/c1ccc(Cl)c(Cl)c1)NC(=O)c1ccccc1` cannot be ordered by TGI: greater than 100 µM for the first, greater than 100 µM for the second.

`O=C1OC(CC(=O)c2ccc(Cl)c(Cl)c2)C(Cl)=C1Cl` (stereo not given) and `CC(=O)Nc1ccc(C(=O)NN2C(=O)C(Cl)C2c2ccc(Cl)cc2)cc1` (stereo not given) cannot be ordered by TGI: greater than 100 µM for the first, greater than 100 µM for the second.

Compared with `CCN(CC)CC(O)CNc1ccc(NCC2CO2)c2c1C(=O)c1ccccc1C2=O` (stereo not given), `O=C1c2ccccc2-c2cccc3ccc(Cc4ccc5ccccc5c4)c1c23` is higher in TGI: 3.3 µM for the first, greater than 100 µM for the second.

First: CC(=O)c1cccc(N2COC(C)(C)c3nc4ccccc4n3C2)c1
Second: O=[N+]([O-])c1cccc(C2N3CCCCC3[C@@H]3c4[nH]c5ccccc5c4CCN23)c1 (stereo not given in full)
The TGI of the first is higher: greater than 100 µM for the first, 32.2 µM for the second.

First: Cc1c[nH]c2c(O)cc3c(c12)[C@H](CCl)CN3C(=O)c1cc2cc(NC(=O)Nc3ccc4[nH]c(C(=O)N5C[C@@H](CCl)c6c5cc(O)c5[nH]cc(C)c65)cc4c3)ccc2[nH]1
Second: Cc1cc(C)c([O-])c(CN(C)CCN(C)Cc2cc(C)cc(C)c2[O-])c1.O=C([O-])c1cccc(C(=O)[O-])n1.[Ti+4]
The TGI of the first is lower: 48 µM for the first, greater than 100 µM for the second.

`O=S(=O)(N/N=C/c1ccc(/C=N/NS(=O)(=O)c2ccccc2)cc1)c1ccccc1` and `Nc1ccc(N(S(=O)(=O)c2ccccc2)S(=O)(=O)c2ccccc2)c(Cl)c1` cannot be ordered by TGI: greater than 100 µM for the first, greater than 100 µM for the second.

`CC[C@@H]1OC2(C)CC(S(=O)(=O)c3ccccc3O)CC1O2` (stereo not given in full) and `CC(=O)OCC1OC(N2C(=O)C(=O)c3cc(C)ccc32)C(OC(C)=O)C(OC(C)=O)C1OC(C)=O` (stereo not given) cannot be ordered by TGI: greater than 100 µM for the first, greater than 100 µM for the second.

`CCOC(=O)C(N)C[S][Sn]([CH3])([CH3])[Cl]` (stereo not given) and `CCOC(=O)C(Cc1c[nH]c2ccc(N)cc12)(NC(C)=O)C(=O)OCC` cannot be ordered by TGI: greater than 100 µM for the first, greater than 1000 µM for the second.

`COc1cc(Cl)c2c3c(c(C(C)=O)oc13)CCC2` and `C=CC1(C(=O)O)CCC(C(C)(C)C)CC1` (stereo not given) cannot be ordered by TGI: greater than 100 µM for the first, greater than 100 µM for the second.

For `COc1ccc([N+]2=NC(c3ccc([N+](=O)[O-])cc3)=NN(c3ccccc3)C2)cc1`, the TGI was 75.5 µM and > 100 µM.
